# Assays:
# [1] = target: T1, human μ-opioid receptor (Homo sapiens, UniProt P35372); assay: cell-based; assay type: cell-based; conditions: CHO/μOR cells, n = 3
# T1 construct: expressed in transfected cells; host or cells: CHO (CHO/μOR cells)
# Description: The inhibition assay was performed as described previously. In brief, tested compound dilutions (with final concentrations of 100 µM, 50 µM, 10 µM, 1 µM, 500 nM, 100 nM, 50 nM, 10 nM, 1 nM, and 100 pM) were produced in saline or DMSO in triplicate. CHO/μOR cells were suspended in the assay buffer and counted, maintaining a cell density of 2000 cells per well, with 5 µL from each well seeded into a 384-well plate. Subsequently, 5 µL of the tested compound solution per well was dispensed into the plate, which was then placed in a 25 °C incubator and incubated in the dark for 30 min. Next, 10 µL of cAMP standard working solution was added to the empty wells of the plate, followed by the addition of 5 µL of Eu-cAMP and Anti-cAMP per well. The plate was subsequently placed back in a 25 °C incubator and further incubated in the dark for 1 h.
# CHO cells expressing the human μ-opioid receptor were cultivated for the assessment of compound effects. […] Cells collected during the exponential phase of growth were dissociated without enzymes to preserve receptor integrity, resuspended in assay buffer, and counted to achieve a uniform concentration. Cell density was adjusted to 2000 cells per well in a 384-well plate, promoting uniform distribution and optimal receptor presence. Post-seeding at 25 °C in darkness facilitated cell adherence and stabilization prior to compound introduction. Compounds were added in serial dilutions, with meticulous dispensing techniques ensuring dose uniformity. Following a 1 h incubation at 25 °C, TR-FRET reagents were applied to measure cAMP levels, indicative of μOR activity. The Envision system recorded these levels, quantifying compound inhibitory effects. Meticulous aseptic techniques and vigilant monitoring were imperative throughout to guarantee data precision from the assay.
# [2] = system: mice; assay: Hot-water tail withdrawal test; assay type: in vivo, CD-1 mice; conditions: 20 mg/kg i.v. tail vein, 15 min post administration
# Description: (§1) Food and water were provided ad libitum.
# The hot-water tail withdrawal test was performed as described previously. In brief, the hot-water tail withdrawal test was conducted using a water bath maintained at 55 ± 0.5 °C. The distal 3 cm section of the mouse’s tail was immersed perpendicularly into the hot water. The duration for which the tail remained in the water was recorded as the initial tail withdrawal latency (TWL0). […] Following the administration of a single dose of the test compound (20 mg/kg, i.v.) or vehicle, the subsequent tail withdrawal latency (TWL) was measured at various time intervals (15, 30, 45, 60, and 90 min). To prevent potential tissue damage, a maximum cutoff latency of 16 s was enforced. Antinociception was quantified using the percentage of maximal possible effect (%MPE), calculated as %MPE = 100 × (TWL − TWL0)/(16 − TWL0).
# [3] = system: mice; assay: Respiratory depression (blood pO2, blood gas analyzer); conditions: single i.v. dose 20 mg/kg (morphine 4 mg/kg), 5-40 min
# Description: (§2) The mice were group-housed in a controlled temperature environment and subjected to a 12 h light/dark cycle (lights on from 07:00 to 19:00). Food and water were provided ad libitum. All animal procedures were conducted in accordance with the policies and recommendations of the International Association for the Study of Pain and the National Health and Animal Welfare Committee of the Beijing Institute of Pharmacology, with the aim of minimizing the number of animals used and their suffering.
# [4] = system: mice; assay: Physical dependence (naloxone-precipitated withdrawal jumping); conditions: i.v. once daily for 5 days, PZM21 and 6a 20 mg/kg, morphine 2 mg/kg, jumps over 20 min
# Description: as §2
# [5] = system: mice; assay: Acetic acid-induced writhing test; assay type: in vivo, CD-1 mice; conditions: 20 mg/kg i.v. tail vein
# Description: as §1
# The acetic acid-induced writhing test was performed as described previously. In brief, after pretreatment with the test compound at a dose of 20 mg/kg via intravenous tail vein injection, 1% (v/v) glacial acetic acid was administered intraperitoneally (i.p.) at a dose of 10 mL/kg. Subsequently, the number of writhing responses over a 20 min period was recorded. The antinociception rate was calculated as the percentage of maximal possible effect (%MPE), where %MPE = 100 × (NWV − NWT)/NWV. NWV and NWT represent the average number of writhing responses of the vehicle and test groups, respectively.
# [6] = target: T2, human μOR β-arrestin2 pathway (Homo sapiens, UniProt P35372); assay: cell-based; assay type: cell-based; conditions: U2OS/human μOR β-arrestin cells, n = 3
# T2 construct: β-galactosidase enzyme fragment (PathHunter complementation tag); host or cells: U2OS (U2OS/human μOR β-arrestin cells)
# Description: In this assay, optical signal values were detected employing the PathHunter® (DiscoverX, Shanghai, China) Detection Kit assay method. The agonistic activity of tested compounds on the human μOR β-arrestin2 pathway was quantified using a β-galactosidase-based enzyme fragment complementation assay. In brief, tested compound dilutions (with final concentrations of 100 μM, 50 μM, 10 μM, 1 μM, 500 nM, 100 nM, 50 nM, 10 nM, 1 nM, and 100 pM) were produced in saline or DMSO in triplicate. Next, 100 nL of the tested compound solution per well was dispensed into a 384-well cell culture plate. The U2OS/human μOR β-arrestin cells were resuspended in Opti-MEM and counted to achieve a cell density of 4000 cells per well, and 20 μL from each well was seeded into the 384-well cell culture plate. The plate was subsequently incubated at 37 °C in the dark for 120 min. Post-incubation, the cell plate was equilibrated to room temperature for 10–20 min, and 5 μL of the detection reagent were added to each well. Following a 60 min incubation at 25 °C, chemiluminescent readings were obtained using the envision system.
# The cells were maintained at 37 °C with 5% CO2 in McCoy’s 5a medium with supplements and cultivated utilizing precise techniques to ensure accurate, reproducible results. Cells were gently dissociated for assays to maintain receptor integrity and resuspended in Opti-MEM® for compatibility with the PathHunter® (DiscoverX, Shanghai, China). Detection Kit. Cell density was adjusted to 4000 cells per well in a 384-well plate, to ensure that a uniform monolayer was established for the β-galactosidase assay. After seeding and incubation in the dark at 37 °C to facilitate cell attachment, the plates were equilibrated to room temperature prior to compound treatment. Serial dilutions of the compounds were assessed for pharmacological effect. A detection reagent was then added to measure β-galactosidase activity as indicative of μ-opioid receptor and β-arrestin2 interaction. Following reagent incubation, chemiluminescence was quantified, providing quantitative data on compound agonistic activity. Throughout, meticulous aseptic technique and strict adherence to protocols were imperative to ensure the integrity of the pharmacological data derived from these studies.
# [7] = system: mice; assay: Formalin paw-licking test; assay type: in vivo, CD-1 mice; conditions: 20 mg/kg i.v. tail vein, Phase II
# Description: as §1
# The formalin injection assay was performed as described previously. […] After 15 min, 30 µL of a 2.7% formalin solution was administered into the right hind paw of each mouse. Then, the mice were put into the cage and their behaviors were observed. The antinociception rate was quantified as the percentage of maximal possible effect (%MPE), calculated as %MPE = 100 × (PLTV − PLTT)/PLTV; PLTV and PLTT represent the average paw-licking duration during Phase II for the vehicle and test groups, respectively.
# T1 sequence (P35372 whole entry): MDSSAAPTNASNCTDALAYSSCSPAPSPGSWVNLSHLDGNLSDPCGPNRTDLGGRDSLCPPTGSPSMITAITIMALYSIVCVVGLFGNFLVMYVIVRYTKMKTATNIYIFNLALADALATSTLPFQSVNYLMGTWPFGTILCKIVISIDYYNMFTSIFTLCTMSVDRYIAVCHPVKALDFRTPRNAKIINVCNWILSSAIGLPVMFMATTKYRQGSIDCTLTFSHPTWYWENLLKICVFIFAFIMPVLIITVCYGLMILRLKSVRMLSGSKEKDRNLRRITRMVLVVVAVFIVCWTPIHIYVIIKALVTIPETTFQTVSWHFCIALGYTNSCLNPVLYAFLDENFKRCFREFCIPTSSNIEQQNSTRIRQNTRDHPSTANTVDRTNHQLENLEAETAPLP
# T2 sequence (P35372 whole entry, the tested form may be a part): as the sequence (P35372 whole entry) above
smiles,measurement,setting,value
"CN(C)[C@H](CNC(=O)NCc1ccccc1)Cc1cccc2ccccc12 [6a, (S)-1-benzyl-3-(2-(dimethylamino)-3-(naphthalen-1-yl)propyl) urea]",EC50,"[1]; cAMP inhibition, ""-"" = no measurable activity, read-out: EC50 (nM) (95% CI), µOR-Gi/o activation assay",10.8 nM
same,Emax,"[1]; at the concentration printed in parentheses in the cell, read-out: Max Effect ± SEM (%), µOR-Gi/o activation assay",51.9 ± 1.06%
same,"pain inhibition rate (%MPE), hot-water tail-withdrawal test",[2],50.19%
same,respiratory depression: partial pressure of oxygen in blood vs vehicle,[3],does not induce acute respiratory depression
same,physical dependence: jumping after naloxone-precipitated withdrawal vs vehicle,[4],does not induce physical dependence or withdrawal symptoms
same,"analgesia rate (%MPE), acetic acid-induced writhing",[5],exceeding 97%
same,Emax,"[6]; at the concentration printed in parentheses in the cell, read-out: Max Effect ± SEM (%), µOR β-arrestin recruitment assay",0.38 ± 0.21%
same,EC50,"[6]; ""-"" = no measurable activity, read-out: EC50 (nM) (95% CI), µOR β-arrestin recruitment assay",> 100000 nM
same,"antinociceptive efficacy (%MPE), formalin-induced paw licking, second phase",[7],73.80%

# Source: paper PMC11243066, “Synthesis and Biological Evaluation of Novel Biased Mu-Opioid Receptor Agonists” (Molecules, 2024)
